# Source: patent publication US20020076728A1, “Engineering affinity ligands for macromolecules” (priority 1997, published 2002)
# Values joined by “and” are separate entries in the source; they are usually repeats but may differ in a detail not shown here. Equal values may be shown once. Ends that are not written are not given here.
# B1: 15-amino acid segment derived from affinity ligand isolate #109 (peptide)
# peptide: RLCPKTDLGCMKDSD
# modifications: also: C3-C10 disulfide stated only as a possibility
# notes: also called truncated 15-amino acid segment of the isolate #109; C3-C10 loop
# Tests used:
# tPA = tPA (Homo sapiens, UniProt P00750); test: 15-amino acid segment of #109 bound to chromatographic support, tPA binding; conditions: bound to a chromatographic support; initial studies
# Chain of tPA (P00750 36-562): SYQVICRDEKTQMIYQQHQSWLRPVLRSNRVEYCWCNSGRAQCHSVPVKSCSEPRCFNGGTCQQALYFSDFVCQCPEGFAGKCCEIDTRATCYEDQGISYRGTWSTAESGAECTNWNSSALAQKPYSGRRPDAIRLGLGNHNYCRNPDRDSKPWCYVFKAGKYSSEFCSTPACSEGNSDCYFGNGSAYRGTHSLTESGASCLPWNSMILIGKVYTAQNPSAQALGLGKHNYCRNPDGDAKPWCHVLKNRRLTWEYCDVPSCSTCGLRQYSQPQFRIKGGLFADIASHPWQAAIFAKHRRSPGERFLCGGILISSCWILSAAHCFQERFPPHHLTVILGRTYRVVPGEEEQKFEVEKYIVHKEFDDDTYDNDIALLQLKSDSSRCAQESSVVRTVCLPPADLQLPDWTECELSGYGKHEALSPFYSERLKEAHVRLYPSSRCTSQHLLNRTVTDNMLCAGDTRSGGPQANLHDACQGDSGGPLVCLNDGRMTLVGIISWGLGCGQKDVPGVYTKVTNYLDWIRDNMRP
# Excerpt: As noted above, almost all of the variegation in amino acid positions used in building the CMTI library occurred between two cyteines at positions 3 and 10 of CMTI-I (see Table 3). In the parental CMTI protein, these cysteines form disulfide bonds with other cysteine residues elsewhere in the protein (see SEQ ID NO: 1), however with the successful isolation of affinity ligands from the CMTI library, a secondary library was conceptualized which was based on variegating a truncated 15-amino acid segment of the isolate #109 (see amino acids 1-15 of SEQ ID NO: 12). If the C3 and C10 cysteines of these members formed a disulfide bond, then a constrained loop having tPA binding properties might be obtained.
# M13 phage = test: Stability of M13 in various organic solvents (phage survival); conditions: for surviving phage: incubation for 20 minutes with 80% solvent
# Excerpt: Thus, if phage display libraries are used, it is of interest to determine whether organic solvents disrupt the phage.
# [1] = side-chain ionizable group of the amino acid type in proteins; cited from earlier work
# [2] = biological target: T1, recombinant human tissue-type plasminogen activator (human, UniProt P00750 36-562); test: peptide bound to a chromatographic support
# T1 construct: Bought; immobilised on Reacti-Gel agarose beads for phage work, in solution for column tests; also called tPA
# T1 sequence (P00750 36-562 limits assumed): as the sequence (P00750 36-562) above
# [3] = 10% solvent by volume in Luria broth
# [4] = 20% solvent by volume in Luria broth
# [5] = 40% solvent by volume in Luria broth
# [6] = 80% solvent by volume in Luria broth
# [7] = 2% solvent by volume in Luria broth
# [8] = 5% solvent by volume in Luria broth
molecule,measurement,setting,value
"15-amino acid segment derived from affinity ligand isolate #109: truncated 15-amino acid segment of isolate #109 (amino acids 1-15 of SEQ ID NO: 12), C3-C10 disulfide loop (RLCPKTDLGCMKDSD; also: C3-C10 disulfide stated only as a possibility)",binding of immobilized loop to tPA,tPA,bound to tPA
"CC#N [ACN, acetonitrile]",Survival after 20 min. (%),M13 phage; [3],84%
same,Survival after 60 min. (%),M13 phage; [3],74%
same,Survival after 20 min. (%),M13 phage; [4],80%
same,Survival after 60 min. (%),M13 phage; [4],91%
same,Survival after 20 min. (%),M13 phage; [5],92%
same,Survival after 60 min. (%),M13 phage; [5],89%
same,Survival after 20 min. (%),M13 phage; [6],30% and 37%
same,Survival after 60 min. (%),M13 phage; [6],8% and 3%
N=C(N)NCCC[C@H](N)C(=O)O [Arg],pKa range,[1],12.0
"N[C@@H](CC(=O)O)C(=O)O [Asp, aspartic acid]",pKa range,[1],3.9-4.0
N[C@@H](CS)C(=O)O [Cys (not in disulfide)],pKa range,[1],9.0-9.5
"CN(C)C=O [DMF, dimethylformamide]",surviving phage,M13 phage,no surviving phage
"C[S+](C)[O-] [DMSO, dimethylsulfoxide]",Survival after 20 min. (%),M13 phage; [7],84%
same,Survival after 60 min. (%),M13 phage; [7],89%
same,Survival after 20 min. (%),M13 phage; [8],68%
same,Survival after 60 min. (%),M13 phage; [8],86%
same,Survival after 20 min. (%),M13 phage; [3],96%
same,Survival after 60 min. (%),M13 phage; [3],86%
same,Survival after 20 min. (%),M13 phage; [4],73%
same,Survival after 60 min. (%),M13 phage; [4],82%
same,Survival after 20 min. (%),M13 phage; [6],1%
same,Survival after 60 min. (%),M13 phage; [6],>1%
"CCO [EtOH, ethanol]",surviving phage,M13 phage,no surviving phage
N[C@@H](CCC(=O)O)C(=O)O [Glu],pKa range,[1],4.3-4.5
"N[C@@H](Cc1c[nH]cn1)C(=O)O [His, Histidine]",pKa range,[1],6.0-7.0
"CC(C)O [IPA, isopropyl alcohol]",surviving phage,M13 phage,no surviving phage
NCCCC[C@H](N)C(=O)O [Lys],pKa range,[1],10.4-11.1
"CO [MeOH, methanol]",Survival after 20 min. (%),M13 phage; [3],110%
same,Survival after 60 min. (%),M13 phage; [3],80%
same,Survival after 20 min. (%),M13 phage; [4],93%
same,Survival after 60 min. (%),M13 phage; [4],84%
same,Survival after 20 min. (%),M13 phage; [5],92%
same,Survival after 60 min. (%),M13 phage; [5],84%
B1,binding result,[2],binds
